Data taken from patent US20160102073A1, “2-HYDROXYMETHYL-SUBSTITUTED OREXIN RECEPTOR ANTAGONISTS” (MERCK SHARP & DOHME CORP., priority 2013, published 2016).

Legend:
[1] = target: T1, human orexin-2 receptor (hOX2R) (Homo sapiens, UniProt O43614); assay: FLIPR Ca2+ Flux Assay, CHO cells expressing hOX2R; type: cell-based; conditions: agonist 70 pM Ala-6,12 orexin-A
T1 construct: expressed in transfected cells; host or cells: Chinese hamster ovary (CHO) cells, grown under G418 selection
T1 sequence (O43614 1-444): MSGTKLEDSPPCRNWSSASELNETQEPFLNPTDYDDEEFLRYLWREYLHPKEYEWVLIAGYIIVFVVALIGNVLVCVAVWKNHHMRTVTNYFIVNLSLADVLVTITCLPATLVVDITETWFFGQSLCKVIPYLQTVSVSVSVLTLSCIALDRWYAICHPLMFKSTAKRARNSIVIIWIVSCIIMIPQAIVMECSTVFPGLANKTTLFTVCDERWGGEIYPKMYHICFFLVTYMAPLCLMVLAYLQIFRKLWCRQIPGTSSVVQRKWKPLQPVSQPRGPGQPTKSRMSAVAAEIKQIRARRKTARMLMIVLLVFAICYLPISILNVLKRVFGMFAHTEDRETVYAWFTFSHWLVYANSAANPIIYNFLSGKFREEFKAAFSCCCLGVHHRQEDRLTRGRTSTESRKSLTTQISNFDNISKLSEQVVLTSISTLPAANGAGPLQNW
Description: The utility of the compounds in accordance with the present invention as orexin receptor OX1R and/or OX2R antagonists may be readily determined without undue experimentation by methodology well known in the art, including the “FLIPR Ca^2+ Flux Assay” (Okumura et al., Biochem. Biophys. Res. Comm. 280:976-981, 2001). In a typical experiment the OX1 and OX2 receptor antagonistic activity of the compounds of the present invention was determined in accordance with the following experimental method. For intracellular calcium measurements, Chinese hamster ovary (CHO) cells expressing the rat orexin-1 receptor or the human orexin-2 receptor, are grown in Iscove's modified DMEM containing 2 mM L-glutamine, […], 1% hypoxanthine-thymidine supplement, 100 U/ml penicillin, 100 μg/ml streptomycin and 10% heat-inactivated fetal calf serum (FCS). The cells are seeded at 20,000 cells/well into Becton-Dickinson black 384-well clear bottom sterile plates coated with poly-D-lysine. All reagents were from GIBCO-Invitrogen Corp. The seeded plates are incubated overnight at 37° C. and 5% CO2. Ala-6,12 human orexin-A as the agonist is prepared as a 1 mM stock solution in 1% bovine serum albumin (BSA) and diluted in assay buffer (HBSS containing 20 mM HEPES, 0.1% BSA and 2.5 mM probenecid, pH7.4) for use in the assay at a final concentration of 70 pM. Test compounds are prepared as 10 mM stock solution in DMSO, then diluted in 384-well plates, first in DMSO, then assay buffer. On the day of the assay, cells are washed 3 times with 100 μl assay buffer and then incubated for 60 min (37° C., 5% CO2) in 60 μl assay buffer containing 1 μM Fluo-4AM ester, 0.02% pluronic acid, and 1% BSA. The dye loading solution is then aspirated and cells are washed 3 times with 100 μl assay buffer. 30 μl of that same buffer is left in each well. Within the Fluorescent Imaging Plate Reader (FLIPR, Molecular Devices), test compounds are added to the plate in a volume of 25 μl, incubated for 5 min and finally 25 μl of agonist is added. Fluorescence is measured for each well at 1 second intervals for 5 minutes and the height of each fluorescence peak is compared to the height of the fluorescence peak induced by 70 pM Ala-6,12 orexin-A with buffer in place of antagonist. For each antagonist, IC50 value (the concentration of compound needed to inhibit 50% of the agonist response) is determined. Alternatively, compound potency can be assessed by a radioligand binding assay (described in Bergman et. al. Bioorg. Med. Chem. Lett. 2008, 18, 1425-1430) in which the inhibition constant (Ki) is determined in membranes prepared from CHO cells expressing either the OX1 or OX2 receptor. The intrinsic orexin receptor antagonist activity of a compound which may be used in the present invention may be determined by these assays.
Chinese hamster ovary (CHO) cells expressing the human orexin-1 receptor (hOX1R) or the human orexin-2 receptor (hOX2R) were grown in Iscove's modified DMEM containing 2 mM L-glutamine, […], 1% hypoxanthine-thymidine supplement, 100 U/ml penicillin, 100 μg/ml streptomycin and 10% heat-inactivated fetal calf serum (FCS). The cells were seeded at 20,000 cells/well into Becton-Dickinson black 384-well clear bottom sterile plates coated with poly-D-lysine. All reagents were from GIBCO-Invitrogen Corp. The seeded plates were incubated overnight at 37° C. and 5% CO2. Ala-6,12 human orexin-A, used as the agonist, was prepared as a 1 mM stock solution in 1% bovine serum albumin (BSA) and diluted in assay buffer (HBSS containing 20 mM HEPES, 0.1% BSA and 2.5 mM probenecid, pH7.4) for use in the assay at a final concentration of 70 pM. Test compounds were prepared as 10 mM stock solution in DMSO, then diluted in 384-well plates, first in DMSO, then assay buffer. […]

[2] = target: T2, human orexin-1 receptor (hOX1R) (Homo sapiens, UniProt O43613); assay: FLIPR Ca2+ Flux Assay, CHO cells expressing hOX1R; type: cell-based; conditions: agonist 70 pM Ala-6,12 orexin-A
T2 construct: expressed in transfected cells; host or cells: Chinese hamster ovary (CHO) cells, grown under G418 selection
T2 sequence (O43613 1-425): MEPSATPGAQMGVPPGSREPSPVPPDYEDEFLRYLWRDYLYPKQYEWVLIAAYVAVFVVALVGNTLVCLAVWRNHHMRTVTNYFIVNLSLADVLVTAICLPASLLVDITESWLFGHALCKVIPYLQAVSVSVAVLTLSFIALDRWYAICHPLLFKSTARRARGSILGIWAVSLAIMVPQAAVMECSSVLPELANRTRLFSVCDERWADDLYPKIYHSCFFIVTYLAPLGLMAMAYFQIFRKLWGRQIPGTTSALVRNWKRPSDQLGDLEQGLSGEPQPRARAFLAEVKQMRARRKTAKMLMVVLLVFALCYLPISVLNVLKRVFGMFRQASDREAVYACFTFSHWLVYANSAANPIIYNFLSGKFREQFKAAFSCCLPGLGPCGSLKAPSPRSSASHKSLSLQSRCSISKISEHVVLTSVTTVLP
Description: Chinese hamster ovary (CHO) cells expressing the human orexin-1 receptor (hOX1R) or the human orexin-2 receptor (hOX2R) were grown in Iscove's modified DMEM containing 2 mM L-glutamine, […], 1% hypoxanthine-thymidine supplement, 100 U/ml penicillin, 100 μg/ml streptomycin and 10% heat-inactivated fetal calf serum (FCS). The cells were seeded at 20,000 cells/well into Becton-Dickinson black 384-well clear bottom sterile plates coated with poly-D-lysine. All reagents were from GIBCO-Invitrogen Corp. The seeded plates were incubated overnight at 37° C. and 5% CO2. Ala-6,12 human orexin-A, used as the agonist, was prepared as a 1 mM stock solution in 1% bovine serum albumin (BSA) and diluted in assay buffer (HBSS containing 20 mM HEPES, 0.1% BSA and 2.5 mM probenecid, pH7.4) for use in the assay at a final concentration of 70 pM. Test compounds were prepared as 10 mM stock solution in DMSO, then diluted in 384-well plates, first in DMSO, then assay buffer.
On the day of the assay, cells were washed 3× with 100 μl assay buffer and then incubated for 60 minutes (37° C., 5% CO2) in 60 μl assay buffer containing 1 μM Fluo-4AM ester, 0.02% pluronic acid, and 1% BSA. The dye loading solution was then aspirated and cells were washed 3× with 100 μl assay buffer. 30 μl of that same buffer was left in each well. Within the Fluorescent Imaging Plate Reader (FLIPR, Molecular Devices), test compounds were added to the plate in a volume of 25 μl, incubated for 5 minutes, and then 25 μl of agonist was added. Fluorescence was measured for each well at 1 second intervals for 5 minutes, and the height of each fluorescence peak was compared to the height of the fluorescence peak induced by 70 pM of Ala-6,12 orexin-A with buffer in place of test compound.

Compound | IC50 [1] | IC50 [2]
COc1ccc(C(=O)N2C[C@H](Oc3ncccc3CO)CC[C@H]2C)c(-n2nccn2)n1 [Example 49, (2-{[(3R,6R)-1-{[6-Methoxy-2-(2H-1,2,3-triazol-2-yl)pyridin-3-yl]carbonyl}-6-methylpiperidin-3-yl]oxy}pyridin-3-yl)methanol] | 588 nM | 10000 nM
C[C@@H]1CC[C@@H](Oc2ncccc2C(C)(C)O)CN1C(=O)c1ccccc1-n1nccn1 [Example 1, 2-(2-{[(3R,6R)-6-Methyl-1-{[2-(2H-1,2,3-triazol-2-yl)phenyl]carbonyl}piperidin-3-yl]oxy}pyridin-3-yl)propan-2-ol] | 30 nM | 44.5 nM
Cc1ccc(-n2nccn2)c(C(=O)N2C[C@H](Oc3ncccc3C(C)(C)O)CC[C@H]2C)c1 [Example 17, 2-(2-{[(3R,6R)-6-methyl-1-{[5-methyl-2-(2i-1,2,3-triazol-2-yl)phenyl]carbonyl}piperidin-3-yl]oxy}pyridin-3-yl)propan-2-ol] | 37 nM | 50 nM
C[C@@H]1CC[C@@H](Oc2ncccc2[C@H](O)C(F)(F)F)CN1C(=O)c1ccccc1-n1nccn1 [Example 36, (1S)-2,2,2-Trifluoro-1-(2-{[(3R,6R)-6-methyl-1-{[2-(2H-1,2,3-triazol-2-yl)phenyl]carbonyl}piperidin-3-yl]oxy}pyridin-3-yl)ethanol] | 24 nM | 904 nM
C[C@@H]1CC[C@@H](Oc2ncccc2[C@@H](O)C(F)(F)F)CN1C(=O)c1ccccc1-n1nccn1 [Example 37, (1R)-2,2,2-Trifluoro-1-(2-{[(3R,6R)-6-methyl-1-{[2-(2H-1,2,3-triazol-2-yl)phenyl]carbonyl}piperidin-3-yl]oxy}pyridin-3-yl)ethanol] | 18 nM | 55 nM
C[C@@H]1CC[C@@H](Oc2ncccc2C(C)(C)O)CN1C(=O)c1sccc1-n1nccn1 [Example 11, 2-(2-{[(3R,6R)-6-methyl-1-{[3-(2H-1,2,3-triazol-2-yl)thiophen-2-yl]carbonyl}piperidin-3-yl]oxy}pyridin-3-yl)propan-2-ol] | 41 nM | 148 nM
C[C@@H]1CC[C@@H](Oc2ncccc2C(C)(C)O)CN1C(=O)c1cccc(F)c1-c1ncccn1 [Example 20, 2-[2-({(3R,6R)-1-[(3-fluoro-2-pyrimidin-2-yl-phenyl)carbonyl]-6-methyl-piperidin-3-yl}oxy)pyridin-3-yl]propan-2-ol] | 98 nM | 609 nM
C[C@@H]1CC[C@@H](Oc2ncccc2C(C)(C)O)CN1C(=O)c1cc(Cl)ccc1-n1nccn1 [Example 6, 2-(2-{[(3R,6R)-1-{[5-chloro-2-(2H-1,2,3-triazol-2-yl)phenyl]carbonyl}-6-methylpiperidin-3-yl]oxy}pyridin-3-yl)propan-2-ol] | 66 nM | 141 nM
C[C@@H]1CC[C@@H](Oc2ncccc2C(C)(C)O)CN1C(=O)c1cc(F)ccc1-n1nccn1 [Example 5, 2-(2-{[(3R,6R)-1-{[5-fluoro-2-(2H-1,2,3-triazol-2-yl)phenyl]carbonyl}-6-methylpiperidin-3-yl]oxy}pyridin-3-yl)propan-2-ol] | 34 nM | 121 nM
COc1ccnc(O[C@@H]2CC[C@@H](C)N(C(=O)c3ccccc3-n3nccn3)C2)c1C(C)(C)O (single isomer, unassigned) [Example 28] | 80 nM | 93 nM
C[C@@H]1CC[C@@H](Oc2ncccc2C(C)(C)O)CN1C(=O)c1ccc(F)cc1C1CC1 [Example 14, 2-[2-({(3R,6R)-1-[(2-cyclopropyl-4-fluorophenyl)carbonyl]-6-methylpiperidin-3-yl}oxy)pyridin-3-yl]propan-2-ol] | 49 nM | 475 nM
CC[C@@H](O)c1cccnc1O[C@@H]1CC[C@@H](C)N(C(=O)c2ccccc2-n2nccn2)C1 [Example 33, (1R)-1-(2-{[(3R,6R)-6-methyl-1-{[2-(2H-1,2,3-triazol-2-yl)phenyl]carbonyl}piperidin-3-yl]oxy}pyridin-3-yl) propan-1-ol] | 33 nM | 46 nM
CC(O)c1c(C(F)(F)F)ccnc1O[C@@H]1CC[C@@H](C)N(C(=O)c2ccccc2-n2nccn2)C1 (stereo partly drawn) [Example 38, 1-[2-{[(3R,6R)-6-Methyl-1-{[2-(2H-1,2,3-triazol-2-yl)phenyl]carbonyl}piperidin-3-yl]oxy}-4-(trifluoromethyl)pyridin-3-yl]ethanol] | 110 nM | 188 nM
Cc1ccnc(O[C@@H]2CC[C@@H](C)N(C(=O)c3ccccc3-n3nccn3)C2)c1CO [Example 41, (4-methyl-2-{[(3R,6R)-6-methyl-1-{[2-(2H-1,2,3-triazol-2-yl)phenyl]carbonyl}piperidin-3-yl]oxy}pyridin-3-yl)methanol] | 15 nM | 69 nM
